Measurements from patent US9693556B2, “Herbicidal pyridazinone derivatives” (SYNGENTA LIMITED, priority 2011, dated 2017).

Assays:
Format in all cases: in vivo
[1] = test system: Alopecurus myosuroides (ALOMY); assay: Pre-emergence herbicidal glasshouse test on Alopecurus myosuroides; conditions: pre-emergence; 1000 g/h; evaluated after 13 days
Outline: (§1)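 Plants sprayed 1 day (pre-emergence) or 8 days (post-emergence) after sowing with compound at 1000 g/h in acetone/water 50:50 with 0.5% Tween 20; glasshouse 24/16° C, 14 h light, 65% humidity. Damage assessed after 13 days, scored 1–5 (5 = 80-100%, 1 = 0-19%).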

Setaria faberi (SETFA) [2] = assay: Pre-emergence herbicidal glasshouse test on Setaria faberi; conditions: pre-emergence; 1000 g/h; evaluated after 13 days
Outline: as §1

[3] = test system: Echinochloa crus-galli (ECHCG); assay: Pre-emergence herbicidal glasshouse test on Echinochloa crus-galli; conditions: pre-emergence; 1000 g/h; evaluated after 13 days
Outline: as §1

Solanum nigrum (SOLNI) [4] = assay: Pre-emergence herbicidal glasshouse test on Solanum nigrum; conditions: pre-emergence; 1000 g/h; evaluated after 13 days
Outline: as §1

[5] = test system: Amaranthus retoflexus (AMARE); assay: Pre-emergence herbicidal glasshouse test on Amaranthus retoflexus; conditions: pre-emergence; 1000 g/h; evaluated after 13 days
Outline: as §1

[6] = test system: Ipomoea hederacea (IPOHE); assay: Pre-emergence herbicidal glasshouse test on Ipomoea hederacea; conditions: pre-emergence; 1000 g/h; evaluated after 13 days
Outline: as §1

[7] = test system: Alopecurus myosuroides (ALOMY); assay: Post-emergence herbicidal glasshouse test on Alopecurus myosuroides; conditions: post-emergence; 1000 g/h; evaluated after 13 days
Outline: as §1

Setaria faberi (SETFA) [8] = assay: Post-emergence herbicidal glasshouse test on Setaria faberi; conditions: post-emergence; 1000 g/h; evaluated after 13 days
Outline: as §1

[9] = test system: Echinochloa crus-galli (ECHCG); assay: Post-emergence herbicidal glasshouse test on Echinochloa crus-galli; conditions: post-emergence; 1000 g/h; evaluated after 13 days
Outline: as §1

Solanum nigrum (SOLNI) [10] = assay: Post-emergence herbicidal glasshouse test on Solanum nigrum; conditions: post-emergence; 1000 g/h; evaluated after 13 days
Outline: as §1

[11] = test system: Amaranthus retoflexus (AMARE); assay: Post-emergence herbicidal glasshouse test on Amaranthus retoflexus; conditions: post-emergence; 1000 g/h; evaluated after 13 days
Outline: as §1

[12] = test system: Ipomoea hederacea (IPOHE); assay: Post-emergence herbicidal glasshouse test on Ipomoea hederacea; conditions: post-emergence; 1000 g/h; evaluated after 13 days
Outline: as §1

| SMILES | PRE Application ALOMY herbicidal damage (five point scale) [1] | PRE Application SETFA herbicidal damage (five point scale) (Setaria faberi (SETFA) [2]) | PRE Application ECHCG herbicidal damage (five point scale) [3] | PRE Application SOLNI herbicidal damage (five point scale) (Solanum nigrum (SOLNI) [4]) | PRE Application AMARE herbicidal damage (five point scale) [5] | PRE Application IPOHE herbicidal damage (five point scale) [6] | POST Application ALOMY herbicidal damage (five point scale) [7] | POST Application SETFA herbicidal damage (five point scale) (Setaria faberi (SETFA) [8]) | POST Application ECHCG herbicidal damage (five point scale) [9] | POST Application SOLNI herbicidal damage (five point scale) (Solanum nigrum (SOLNI) [10]) | POST Application AMARE herbicidal damage (five point scale) [11] | POST Application IPOHE herbicidal damage (five point scale) [12] |
| --- | --- | --- | --- | --- | --- | --- | --- | --- | --- | --- | --- | --- |
| Cn1ncc(-c2ccccc2[S+](C)[O-])c(O)c1=O (stereo not drawn) [Compound 1.036] | 3 (3=40-59% damage) | 2 (2=20-39% damage) | 2 (2=20-39% damage) | 1 (1=0-19% damage) | 3 (3=40-59% damage) | 1 (1=0-19% damage) | 5 (5=80-100% damage) | 5 (5=80-100% damage) | 5 (5=80-100% damage) | 5 (5=80-100% damage) | 5 (5=80-100% damage) | 5 (5=80-100% damage) |
| Cn1ncc(-n2ccc(C(F)(F)F)c(-c3cccc(Cl)c3)c2=O)c(O)c1=O [Compound 1.037] | 4 (4=60-79% damage) | 4 (4=60-79% damage) | 5 (5=80-100% damage) | 5 (5=80-100% damage) | 5 (5=80-100% damage) | 1 (1=0-19% damage) | 4 (4=60-79% damage) | 4 (4=60-79% damage) | 4 (4=60-79% damage) | 5 (5=80-100% damage) | 5 (5=80-100% damage) | 4 (4=60-79% damage) |
| Cc1cccc(-c2c(C(F)(F)F)ccn(-c3cnn(C)c(=O)c3O)c2=O)c1 [Compound 1.038, 4-hydroxy-2-methyl-5-[3-(m-tolyl)-2-oxo-4-(trifluoromethyl)-1-pyridyl]pyridazin-3-one] | 3 (3=40-59% damage) | 3 (3=40-59% damage) | 5 (5=80-100% damage) | 5 (5=80-100% damage) | 5 (5=80-100% damage) | 1 (1=0-19% damage) | 4 (4=60-79% damage) | 5 (5=80-100% damage) | 4 (4=60-79% damage) | 5 (5=80-100% damage) | 5 (5=80-100% damage) | 4 (4=60-79% damage) |
| Cn1ncc(-c2cc3cccnc3nc2C(F)(F)F)c(O)c1=O [Compound 1.039] | 2 (2=20-39% damage) | 3 (3=40-59% damage) | 5 (5=80-100% damage) | 4 (4=60-79% damage) | 5 (5=80-100% damage) | 5 (5=80-100% damage) | 4 (4=60-79% damage) | 5 (5=80-100% damage) | 5 (5=80-100% damage) | 5 (5=80-100% damage) | 5 (5=80-100% damage) | 5 (5=80-100% damage) |
| CN(Cc1nc(C(F)(F)F)ccc1-c1cnn(C)c(=O)c1O)S(C)(=O)=O [Compound 1.040] | 5 (5=80-100% damage) | 5 (5=80-100% damage) | 5 (5=80-100% damage) | 5 (5=80-100% damage) | 5 (5=80-100% damage) | 4 (4=60-79% damage) | 4 (4=60-79% damage) | 5 (5=80-100% damage) | 5 (5=80-100% damage) | 5 (5=80-100% damage) | 5 (5=80-100% damage) | 5 (5=80-100% damage) |
